In article PMC4516937 (Toxins, 2015) one finds IC50 data, which are given here for 1 compound.

One may read the IC50 as the midpoint of a concentration-inhibition curve.

Structures are written as SMILES.

The target in the test is T1, OsUGT79 (Oryza sativa, UniProt Q7XT97).
T1 construct: gene UGT79
T1 sequence (Q7XT97 1-466): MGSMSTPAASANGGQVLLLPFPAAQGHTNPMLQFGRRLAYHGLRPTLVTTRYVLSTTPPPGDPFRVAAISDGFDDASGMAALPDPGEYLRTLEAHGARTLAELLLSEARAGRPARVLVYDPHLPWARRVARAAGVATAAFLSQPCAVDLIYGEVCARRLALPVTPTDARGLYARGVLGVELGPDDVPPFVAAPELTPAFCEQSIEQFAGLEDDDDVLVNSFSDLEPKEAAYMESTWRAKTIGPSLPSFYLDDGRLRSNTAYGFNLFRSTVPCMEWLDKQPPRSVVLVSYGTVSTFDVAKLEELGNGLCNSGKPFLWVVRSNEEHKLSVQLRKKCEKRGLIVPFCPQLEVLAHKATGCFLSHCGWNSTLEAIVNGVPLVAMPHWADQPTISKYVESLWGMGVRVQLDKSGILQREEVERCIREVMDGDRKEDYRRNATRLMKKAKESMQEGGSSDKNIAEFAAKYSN
Nature of the test: glucosylation assay of purified recombinant enzyme with HPLC-MS/MS ([…] DON/[…] UDP-glucose). It is filed as biochemical.

With `O=c1ccn([C@@H]2O[C@H](COP(=O)(O)OP(=O)(O)O)[C@@H](O)[C@H]2O)c(=O)[nH]1` [UDP], the IC50 is ~1500 µM.
